Test [1] relates to OT-I CTL (H2K^b-OVA-specific TcR of OT-I). Kind of test: Functional avidity of OT-I CTL by IFNγ production (ELISA). Type of test: cell-based, mouse. As to conditions: Figure 1C, naive OT-I CD8+ T cells with peptide-loaded irradiated RMA/S cells, 72 h 37°C, repeated in duplicates 4 times, read-out: OT-I sensitivity EC50.
Another test deals with T1, H2K^b (Mus musculus, UniProt P01901).
T1 construct: […]; endogenous in cells; host or cells: RMA/S cells (TAP-deficient)
The test is classed as cell-based. As to the method: H2K^b stabilization was determined with TAP-deficient RMA/S cells. These were incubated overnight at 26°C to promote the export of empty H2K^b complexes, then loaded with graded concentrations of OVA or APL peptides (Thermo Scientific) for 2 h at 26°C and subsequently transferred to 37°C for 2 h to destabilize empty MHC molecules. The cells were then washed twice, stained with anti-H2K^b (AF6-88.5.5.3, eBioscience), and analysed on a LSR Fortessa (BD Biosciences). Mean fluorescence intensities were determined with FlowJo (Tree Star). To measure the ex vivo stimulation of naïve OT-I T cells by OVA and APLs, CD8^+ T cells from the spleens of naïve OT-I mice were purified by negative selection (CD8^+ T cell isolation kit, Miltenyi Biotech); for equivalent peptide/MHC class I numbers, irradiated (7500 rads) RMA/S cells were loaded with different peptides at 26°C, then incubated at 37°C; and 5×10^4 OT-I T cells were cultured with 2.5×10^4 RMA/S cells for 72 h at 37°C. IFNγ levels in culture supernatants were measured by ELISA (DuoSet ELISA development kit, R&D Systems). The data were fitted to sigmoidal dose-response curves and EC50 values calculated using GraphPad Prism.

Test [2] has as its target H2K^b (MHC class I, empty complexes on TAP-deficient RMA/S cells) (mouse (endogenous in RMA/S)).
[3] abbreviates: Figure 1B, TAP-deficient RMA/S cells, peptide 2 h 26°C then 2 h 37°C, anti-H2K^b FACS MFI, experiment repeated 3 times, read-out: EC50 (H2K^b stabilization).

The text below walks through data of paper PMC4072806, “Defining Immune Engagement Thresholds for In Vivo Control of Virus-Driven Lymphoproliferation” (PLoS Pathogens, 2014).

Read-outs that look alike come from different tables or passages of the source. No end group written: not given here.

With SIINFEKA [A8], the EC50 in test [1] amounted to 10300 nM; on H2K^b (setting [3]), 2470 nM.
On to “OVA peptide, amino acid residues 257-264 of ovalbumin (SIINFEKL)”, for which the EC50 in test [2] came to 40 nM.
As for SIIRFEKL [R4], the EC50 on H2K^b (setting [3]) turned out to be 56 nM.
On to EIINFEKL [E1], for which the EC50 in test [1] was found to be 7780 nM; on H2K^b (setting [3]), 235 nM.
For “E1 altered peptide ligand of OVA (EIINFEKL)”, in test [2], the fold more peptide than OVA for equivalent H2K^b stabilization stood at 6 fold.
On to SIIGFEKL [G4], for which the values for the EC50 (in test [1]; on H2K^b (setting [3])) were 3610 nM and 34 nM, respectively.
“A8 altered peptide ligand of OVA (mutated anchor residue)”: the fold more peptide than E1 for equivalent H2K^b stabilization in test [2] was 10 fold.
Take SIIQFEKL [Q4]: the EC50 is 0.243 nM in test [1] and 30 nM on H2K^b (setting [3]).
In the same order, the values of SIIVFEKL [V4] are 68.5 nM and 63 nM.
Turning to `CC[C@H](C)[C@H](NC(=O)[C@@H](NC(=O)[C@@H](N)CO)[C@@H](C)CC)C(=O)N[C@@H](CC(N)=O)C(=O)N[C@@H](Cc1ccccc1)C(=O)N[C@@H](CCC(=O)O)C(=O)N[C@@H](CCCCN)C(=O)N[C@@H](CC(C)C)C(=O)O` [OVA, reference compound], the EC50 in test [1] came to 0.0182 nM; at H2K^b (RMA/S cells, read-out: concentration giving 50% maximal H2K^b stabilization (EC50)), 40 nM.
